# Results from ChEMBL document CHEMBL5712070, “Discovery of a chemical probe for the L3MBTL3 methyllysine reader domain” (Nat Chem Biol, 2013).
# Calls of active or inactive are those of the source. The rule behind the calls is not given here.
# Legend:
# [1] = target: T1, Lethal(3)malignant brain tumor-like protein 3 (Homo sapiens, UniProt Q96JM7); assay: Binding affinity to GFP-3MBT tagged L3MBTL3 (unknown origin) assessed as diffusion coefficient at 0.1 uM (reference value: 0.1272 um2/s)
# T1 sequence (Q96JM7 whole entry): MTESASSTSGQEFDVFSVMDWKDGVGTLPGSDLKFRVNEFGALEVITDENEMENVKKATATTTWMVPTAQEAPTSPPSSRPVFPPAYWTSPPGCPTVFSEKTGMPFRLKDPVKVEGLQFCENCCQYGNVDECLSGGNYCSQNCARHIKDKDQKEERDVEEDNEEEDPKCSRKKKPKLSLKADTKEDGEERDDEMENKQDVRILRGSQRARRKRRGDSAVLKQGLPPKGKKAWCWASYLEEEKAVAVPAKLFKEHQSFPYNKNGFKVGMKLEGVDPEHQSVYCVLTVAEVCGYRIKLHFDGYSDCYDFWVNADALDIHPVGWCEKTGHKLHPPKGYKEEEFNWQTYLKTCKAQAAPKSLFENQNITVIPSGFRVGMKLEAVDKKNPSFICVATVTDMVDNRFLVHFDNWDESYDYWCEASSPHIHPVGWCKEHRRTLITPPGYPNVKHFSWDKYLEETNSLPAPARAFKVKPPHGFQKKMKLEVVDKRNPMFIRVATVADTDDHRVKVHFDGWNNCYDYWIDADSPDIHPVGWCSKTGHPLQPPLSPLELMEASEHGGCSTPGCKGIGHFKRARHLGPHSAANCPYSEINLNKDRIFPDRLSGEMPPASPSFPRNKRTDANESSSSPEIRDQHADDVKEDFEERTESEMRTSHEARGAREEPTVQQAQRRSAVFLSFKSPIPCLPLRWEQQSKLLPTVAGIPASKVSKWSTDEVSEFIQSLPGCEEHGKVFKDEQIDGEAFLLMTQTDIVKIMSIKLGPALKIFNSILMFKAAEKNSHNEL
# [2] = target: T1, Lethal(3)malignant brain tumor-like protein 3; assay: Binding affinity to GFP-3MBT tagged L3MBTL3 (unknown origin) assessed as diffusion coefficient at 0.01 uM (reference value: 0.1272 um2/s)
# HEK293 = assay: Effect on overall protein levels of GFP-3MBT tagged L3MBTL3 (unknown origin) expressed in HEK293 cells up to 5 uM by immunofluorescence assay; assay type: functional, cell-based; conditions: Homo sapiens
# [3] = target: Muscarinic acetylcholine receptor M2 (Homo sapiens) (UniProt P08172); assay: Agonist activity at human M2 receptor; assay type: functional
# Chain of Muscarinic acetylcholine receptor M2 (Homo sapiens) (P08172 whole entry): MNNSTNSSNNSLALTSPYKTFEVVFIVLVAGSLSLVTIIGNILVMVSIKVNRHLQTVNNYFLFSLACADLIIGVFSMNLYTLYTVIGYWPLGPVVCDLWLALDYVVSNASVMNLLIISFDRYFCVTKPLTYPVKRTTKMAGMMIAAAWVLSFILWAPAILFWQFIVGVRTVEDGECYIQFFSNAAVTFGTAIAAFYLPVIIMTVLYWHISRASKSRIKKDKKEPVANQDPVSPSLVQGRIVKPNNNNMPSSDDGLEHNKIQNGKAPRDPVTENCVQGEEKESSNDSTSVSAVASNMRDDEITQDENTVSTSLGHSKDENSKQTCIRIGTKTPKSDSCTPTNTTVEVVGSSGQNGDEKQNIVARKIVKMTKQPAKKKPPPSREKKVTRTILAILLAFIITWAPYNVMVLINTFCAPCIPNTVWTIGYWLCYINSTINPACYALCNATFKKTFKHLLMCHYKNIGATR
# [4] = target: Receptor-type tyrosine-protein kinase FLT3 (Homo sapiens) (UniProt P36888); assay: Inhibition of FLT3 (unknown origin) at 10 uM relative to control
# Chain of Receptor-type tyrosine-protein kinase FLT3 (Homo sapiens) (P36888 whole entry): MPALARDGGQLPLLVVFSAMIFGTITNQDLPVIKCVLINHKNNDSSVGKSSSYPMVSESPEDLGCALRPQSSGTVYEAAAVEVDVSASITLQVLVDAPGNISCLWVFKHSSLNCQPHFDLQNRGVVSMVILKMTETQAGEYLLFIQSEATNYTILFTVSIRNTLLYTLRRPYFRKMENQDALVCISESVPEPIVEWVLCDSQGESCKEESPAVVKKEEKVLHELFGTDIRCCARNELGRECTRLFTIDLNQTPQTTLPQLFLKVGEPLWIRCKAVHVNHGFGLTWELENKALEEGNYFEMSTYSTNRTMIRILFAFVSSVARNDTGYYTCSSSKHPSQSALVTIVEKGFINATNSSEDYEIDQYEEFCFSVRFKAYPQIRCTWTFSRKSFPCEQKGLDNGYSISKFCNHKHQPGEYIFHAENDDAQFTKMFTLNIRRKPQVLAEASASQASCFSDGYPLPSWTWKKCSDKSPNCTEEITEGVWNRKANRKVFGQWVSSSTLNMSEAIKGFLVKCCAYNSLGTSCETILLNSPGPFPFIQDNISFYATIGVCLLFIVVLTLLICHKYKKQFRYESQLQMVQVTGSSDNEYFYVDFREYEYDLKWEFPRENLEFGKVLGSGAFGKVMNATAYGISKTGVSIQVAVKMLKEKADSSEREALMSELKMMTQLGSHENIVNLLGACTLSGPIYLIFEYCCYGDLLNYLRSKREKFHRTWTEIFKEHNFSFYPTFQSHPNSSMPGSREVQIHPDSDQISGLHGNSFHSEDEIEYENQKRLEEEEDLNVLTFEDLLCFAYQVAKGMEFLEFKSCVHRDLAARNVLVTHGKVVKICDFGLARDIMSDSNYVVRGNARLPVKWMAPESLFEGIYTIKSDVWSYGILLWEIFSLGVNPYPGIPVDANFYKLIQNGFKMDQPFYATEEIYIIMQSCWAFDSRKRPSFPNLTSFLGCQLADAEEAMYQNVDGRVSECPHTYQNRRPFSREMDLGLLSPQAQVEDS
# [5] = target: Muscarinic acetylcholine receptor M2 (Homo sapiens, UniProt P08172); assay: Antagonist activity at human M2 receptor assessed as reduction in acetylcholine-induced response by Schild analysis; assay type: functional; conditions: read-out: pA2 (converted)
# Chain of Muscarinic acetylcholine receptor M2 (P08172 whole entry): as the sequence (P08172 whole entry) above
# [6] = target: Muscarinic acetylcholine receptor M5 (Homo sapiens, UniProt P08912); assay: Inhibition of M5 receptor (unknown origin) by radioligand binding assay
# Chain of Muscarinic acetylcholine receptor M5 (P08912 whole entry, the tested form may be a part): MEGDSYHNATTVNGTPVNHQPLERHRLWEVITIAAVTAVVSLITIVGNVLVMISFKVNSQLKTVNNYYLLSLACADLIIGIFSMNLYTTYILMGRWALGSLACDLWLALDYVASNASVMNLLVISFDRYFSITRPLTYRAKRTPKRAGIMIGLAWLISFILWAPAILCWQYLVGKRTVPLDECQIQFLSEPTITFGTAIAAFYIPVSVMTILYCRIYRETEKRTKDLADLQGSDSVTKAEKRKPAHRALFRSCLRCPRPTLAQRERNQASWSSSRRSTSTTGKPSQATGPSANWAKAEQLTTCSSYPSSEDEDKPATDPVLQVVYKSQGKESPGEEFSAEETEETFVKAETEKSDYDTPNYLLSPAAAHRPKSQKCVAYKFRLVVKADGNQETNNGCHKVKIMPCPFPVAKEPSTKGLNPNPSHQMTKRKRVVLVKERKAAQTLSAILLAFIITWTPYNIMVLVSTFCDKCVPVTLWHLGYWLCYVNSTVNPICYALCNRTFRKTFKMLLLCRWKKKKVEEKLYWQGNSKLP
# [7] = target: T1, Lethal(3)malignant brain tumor-like protein 3; assay: Binding affinity to GFP-3MBT tagged L3MBTL3 (unknown origin) assessed as diffusion coefficient at 1 uM (reference value: 0.1272 um2/s)
# [8] = target: T1, Lethal(3)malignant brain tumor-like protein 3; assay: Binding affinity to L3MBTL3 (unknown origin) by ITC assay
# Homo sapiens = organism: Homo sapiens; assay: Binding affinity to histone demethylase (unknown origin) assessed as change in melting temperature at 50 uM by Differential scanning fluorimetry relative to control
# [9] = Binding affinity to L3MBTL3 H277A mutant (unknown origin) by ITC assay; set-up: species or system Homo sapiens
# TP53-binding protein 1 = TP53-binding protein 1 (Homo sapiens, UniProt Q12888); assay: Inhibition of tudor domain containing 53BP1 (unknown origin) using H4K20me2 peptide by Alpha-Screen methylated histone peptide competition assay
# Chain of TP53-binding protein 1 (Q12888 whole entry, the tested form may be a part): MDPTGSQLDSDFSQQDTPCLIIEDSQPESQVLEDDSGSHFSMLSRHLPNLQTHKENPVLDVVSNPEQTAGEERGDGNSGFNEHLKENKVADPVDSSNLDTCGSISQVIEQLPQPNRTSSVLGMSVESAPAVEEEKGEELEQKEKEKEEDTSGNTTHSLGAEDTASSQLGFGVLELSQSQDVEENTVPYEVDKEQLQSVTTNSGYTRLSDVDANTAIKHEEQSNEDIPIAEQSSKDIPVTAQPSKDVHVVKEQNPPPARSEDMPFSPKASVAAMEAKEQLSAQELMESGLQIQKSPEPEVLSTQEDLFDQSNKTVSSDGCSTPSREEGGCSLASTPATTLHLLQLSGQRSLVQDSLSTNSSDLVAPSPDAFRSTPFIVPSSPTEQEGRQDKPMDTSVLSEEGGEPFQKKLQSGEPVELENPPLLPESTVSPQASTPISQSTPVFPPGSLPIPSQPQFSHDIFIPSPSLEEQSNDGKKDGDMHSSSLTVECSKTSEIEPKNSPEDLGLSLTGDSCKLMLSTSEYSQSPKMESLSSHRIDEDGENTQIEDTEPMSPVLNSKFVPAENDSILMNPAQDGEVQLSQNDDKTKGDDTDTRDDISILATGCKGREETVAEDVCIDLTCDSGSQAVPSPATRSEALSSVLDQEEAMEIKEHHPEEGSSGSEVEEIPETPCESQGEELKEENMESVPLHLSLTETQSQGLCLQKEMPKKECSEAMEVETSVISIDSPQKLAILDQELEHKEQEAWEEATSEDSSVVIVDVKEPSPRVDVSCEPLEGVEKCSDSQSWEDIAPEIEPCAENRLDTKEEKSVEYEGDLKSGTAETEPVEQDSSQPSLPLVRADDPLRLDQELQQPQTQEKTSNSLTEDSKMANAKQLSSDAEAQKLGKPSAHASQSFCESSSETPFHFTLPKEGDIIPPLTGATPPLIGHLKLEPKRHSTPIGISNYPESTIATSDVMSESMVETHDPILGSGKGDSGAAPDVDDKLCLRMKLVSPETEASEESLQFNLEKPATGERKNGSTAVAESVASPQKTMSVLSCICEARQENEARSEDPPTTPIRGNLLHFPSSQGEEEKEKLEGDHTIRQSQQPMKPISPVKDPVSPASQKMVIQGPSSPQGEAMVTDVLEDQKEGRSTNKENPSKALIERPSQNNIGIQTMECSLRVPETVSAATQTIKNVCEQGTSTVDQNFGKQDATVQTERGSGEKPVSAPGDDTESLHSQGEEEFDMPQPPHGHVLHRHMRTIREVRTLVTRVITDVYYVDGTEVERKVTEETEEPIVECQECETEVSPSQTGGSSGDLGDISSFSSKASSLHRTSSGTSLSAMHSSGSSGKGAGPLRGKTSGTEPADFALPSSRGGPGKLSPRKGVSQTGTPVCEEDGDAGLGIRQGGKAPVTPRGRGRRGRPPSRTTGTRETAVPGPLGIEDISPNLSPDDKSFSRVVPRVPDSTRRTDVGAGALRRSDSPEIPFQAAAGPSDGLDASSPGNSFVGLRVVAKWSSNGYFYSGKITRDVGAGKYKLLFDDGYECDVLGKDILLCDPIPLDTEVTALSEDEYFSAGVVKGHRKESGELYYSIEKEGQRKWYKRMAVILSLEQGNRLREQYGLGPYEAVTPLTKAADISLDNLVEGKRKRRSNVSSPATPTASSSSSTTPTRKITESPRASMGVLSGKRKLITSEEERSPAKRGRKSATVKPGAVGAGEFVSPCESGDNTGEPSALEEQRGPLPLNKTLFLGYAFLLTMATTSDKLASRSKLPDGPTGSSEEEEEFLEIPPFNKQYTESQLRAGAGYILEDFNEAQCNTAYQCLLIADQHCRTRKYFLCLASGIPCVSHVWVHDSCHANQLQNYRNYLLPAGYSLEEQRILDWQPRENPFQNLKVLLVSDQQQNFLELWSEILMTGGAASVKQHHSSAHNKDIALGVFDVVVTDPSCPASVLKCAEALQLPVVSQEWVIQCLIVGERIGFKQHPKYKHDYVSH
smiles,measurement,setting,value
O=C(c1ccc(C(=O)N2CCC(N3CCCC3)CC2)c(Nc2ccccc2)c1)N1CCC(N2CCCC2)CC1,Diffusion coefficient,[1],0.311 um2/s
same,Diffusion coefficient,[2],0.146 um2/s
same,inhibition,HEK293,inactive
same,Activity,[3],inactive
same,inhibition,[4],64%
same,Kb,[5],0.0245 µM
same,Ki,[6],4.3 µM
same,Diffusion coefficient,[7],0.284 um2/s
same,Kd,[8],0.12 µM
same,ΔTm,Homo sapiens,< 0.5 °C
same,Kd,[9],3.1 µM
same,IC50,TP53-binding protein 1,4 µM
